Test results reported in patent publication US9663523B2, “BET protein-inhibiting 5-aryltriazoleazepines” (BAYER PHARMA AKTIENGESELLSCHAFT, priority 2012, dated 2017).

Experiments:
MOLM-13 cells = experiment: Cell proliferation (alamarBlue), MOLM-13; format: cell-based; conditions: Homo sapiens, acute myeloid leukaemia cell line, 96 hours incubation
Procedure, shortened: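 Cells seeded at 4000/well, fluorescence read after overnight at 37° C, then compound-treated for 96 h (MOLM-13, MDA-MB-231), 120 h (MOLP-8) or 168 h (LAPC-4). AlamarBlue fluorescence at start subtracted from end value and compared with buffer-treated cells.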

B16F10 cells = experiment: Cell proliferation (alamarBlue), B16F10; format: cell-based; conditions: Mus musculus, B16-F10; melanoma cell line, 96 hours incubation
Procedure, shortened: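 Mouse B16F10 cells were plated at 400 cells/well in 100 μl of growth medium in 96-well microtitre plates and incubated overnight at 37° C. Initial fluorescence (CI) was then read with alamarBlue® reagent. Cells were exposed to serial compound dilutions for 96 hours at 37° C before final fluorescence (CO) was read. CI was subtracted from CO and compared with buffer-treated controls.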

LAPC-4 cells = experiment: Cell proliferation (alamarBlue), LAPC-4; format: cell-based; conditions: Homo sapiens, LAPC4; prostate carcinoma (androgen receptor-positive) cell line, 168 hours incubation
MOLP-8 cells = experiment: Cell proliferation (alamarBlue), MOLP-8; format: cell-based; conditions: Homo sapiens, multiple myeloma cell line, 120 hours incubation
[1] = molecular target: BRD4(1) (amino acids 44-168) (Homo sapiens (Human), UniProt O60885); experiment: BRD4 binding strength, TR-FRET (HTRF) assay of BRD4(1) / acetylated histone H4 peptide interaction; conditions: inhibition of BRD4(1)/Ac-H4 peptide interaction
MDA-MB-231 cells = experiment: Cell proliferation (alamarBlue), MDA-MB-231; format: cell-based; conditions: Homo sapiens, mammary carcinoma cell line, 96 hours incubation
Protocol: The ability of the compounds according to the invention to inhibit the proliferation of various cell lines was determined.
Cell viability was determined by means of the alamarBlue® reagent (Invitrogen). The cells were sown at different densities (MOLM-13, LAPC-4, MOLP-8 and MDA-MB-231: 4000 cells/well; B16F10: 400 cells/well) in 100 μl of growth medium on 96-well microtitre plates. After overnight incubation at 37° C., the fluorescence values (CI values) were determined. The plates were then treated with various substance dilutions and incubated at 37° C. for 96 hours (MOLM-13, MDA-MB-231 and B16F10 cells), 120 hours (MOLP-8 cells) or 168 hours (LAPC-4 cells). Subsequently, the fluorescence values were determined (CO values). For the data analysis, the CI values were subtracted from the CO values and the results were compared between cells which had been treated with various dilutions of the substance or only with buffer solution.
The compounds according to the invention were tested in the cell lines in Table 2, which represent the indications specified by way of example:
The indications corresponding to the different cell lines can be found in Table 2.

Row | IC50 (MOLM-13 cells) [nM] | IC50 (B16F10 cells) [nM] | IC50 [1] [nM] | IC50 (MDA-MB-231 cells) [nM] | SMILES | IC50 (LAPC-4 cells) [nM] | IC50 (MOLP-8 cells) [nM]
1 | 2960 | 2120 | 1800 | 4730 | Cc1nnc2n1-c1ccccc1C(c1ccc(Cl)cc1)=C[C@H]2CC(=O)N1CCC2(CCCC2)CC1 [Example 29, (−)-1-(8-azaspiro[4.5]dec-8-yl)-2-[(4R)-6-(4-chlorophenyl)-1-methyl-4H-[1,2,4]triazolo[4,3-a][1]benzazepin-4-yl]ethanone] | 670 | 1670
2 | 160 | 150 | 30 | 210 | Cc1noc(C[C@H]2C=C(c3ccc(Cl)cc3)c3ccccc3-n3c(C)nnc32)n1 [Example 35, (−)-6-[(4R)-4-chlorophenyl]-1-methyl-4-[(3-methyl-1,2,4-oxadiazol-5-yl)methyl]-4H-[1,2,4]triazolo[4,3-a][1]benzazepine] | 80 | 130
